The structures appear in SMILES notation. Values after ≈ are worked out from the molar mass of the structure shown.

What all share (format): functional
For assay [1], the system named is Mycobacterium tuberculosis. The experiment in a line: Antimycobacterial activity against Mycobacterium tuberculosis isolate 311 expressing rpoB mutant gene by resazurin microtiter assay.
In assay [2] the test system is Mycobacterium tuberculosis. The experiment in a line: Antimycobacterial activity against Mycobacterium tuberculosis isolate 352 expressing rpoB Asp516Leu and Phe514Phe double mutant gene by resazurin microtiter assay.
The subject of assay [3] is Mycobacterium tuberculosis. The experiment in a line: Antimycobacterial activity against Mycobacterium tuberculosis isolate 309 expressing rpoB His526Arg mutant gene by resazurin microtiter assay.
The test system of assay [4] is Mycobacterium tuberculosis. The experiment in a line: Antimycobacterial activity against Mycobacterium tuberculosis isolate 363 expressing rpoB Asp516Val mutant gene by resazurin microtiter assay.
The subject of assay [5] is Mycobacterium tuberculosis. The experiment in a line: Antimycobacterial activity against Mycobacterium tuberculosis isolate 80,014 expressing rpoB Arg529Lys and Leu530Met mutant gene by resazurin microtiter assay.
In assay [6] the test system is Mycobacterium tuberculosis. Briefly: Antimycobacterial activity against multidrug-resistant Mycobacterium tuberculosis clinical isolate obtained from tuberculosis patient infected in BALB/c mouse assessed as decrease in bacterial burden in lung at 5 mg/kg, po administered daily for 2 months measured after 2 months. Also on record: scale not given: the % may be the effect or the level left.

The test system of assay [7] is Mycobacterium tuberculosis. The experiment in a line: Antimycobacterial activity against multidrug-resistant Mycobacterium tuberculosis clinical isolate obtained from tuberculosis patient infected in BALB/c mouse assessed as decrease in bacterial burden in lung at 5 mg/kg, po administered daily for 2 months measured after 1 month relative to untreated control.
For assay [8], the system named is Mycobacterium tuberculosis. Briefly: Antimycobacterial activity against Mycobacterium tuberculosis isolate 343 expressing rpoB Asp516Val mutant gene by resazurin microtiter assay.
For assay [9], the system named is Mycobacterium tuberculosis. Briefly: Antimycobacterial activity against Mycobacterium tuberculosis isolate 308 expressing rpoB His526Asp mutant gene by resazurin microtiter assay.
Assay [10] concerns Mycobacterium tuberculosis. The experiment in a line: Antimycobacterial activity against Mycobacterium tuberculosis isolate 344 expressing rpoB Ser522Leu mutant gene by resazurin microtiter assay.
Assay [11] relates to Mycobacterium tuberculosis. Briefly: Antimycobacterial activity against Mycobacterium tuberculosis isolate 307 expressing rpoB Ser531Leu mutant gene by resazurin microtiter assay.
Assay [12] deals with Mycobacterium tuberculosis. Briefly: Antimycobacterial activity against Mycobacterium tuberculosis isolate 364 expressing rpoB Ser522Leu mutant gene by resazurin microtiter assay.
Assay [13] relates to Mycobacterium tuberculosis. The experiment in a line: Antimycobacterial activity against Mycobacterium tuberculosis isolate 349 expressing rpoB mutant gene by resazurin microtiter assay.
For assay [14], the system named is Mycobacterium tuberculosis. Briefly: Antimycobacterial activity against multidrug-resistant Mycobacterium tuberculosis clinical isolate obtained from tuberculosis patient infected in BALB/c mouse assessed as decrease in surface area affected by pneumonia in lung at 5 mg/kg, po administered daily for 2 months measured after 2 months. The arrangement: scale not given: the % may be the effect or the level left.

As to `CO[C@H]1/C=C/O[C@@]2(C)Oc3c(C)c(O)c4c(c3C2=O)C2=NC3(CCN(CC(C)C)CC3)N(C(C)=O)C2=C(NC(=O)/C(C)=C\C=C\[C@H](C)[C@H](O)[C@@H](C)[C@@H](O)[C@@H](C)[C@H](OC(C)=O)[C@@H]1C)C4=O`, the minimum inhibitory concentration (MIC) was above 2 µg/mL in [1]; 1 µg/mL (≈ 1.12 µM) in assay [2]; 0.25 µg/mL (≈ 0.281 µM) in [3]; 0.06 µg/mL (≈ 0.0675 µM) in [4]; 0.25 µg/mL (≈ 0.281 µM) in assay [5]; above 2 µg/mL in assay [8]. For the same molecule, the MIC was above 2 µg/mL in [9]; 0.06 µg/mL (≈ 0.0675 µM) in assay [10]; 2 µg/mL (≈ 2.25 µM) in assay [11]; 0.25 µg/mL (≈ 0.281 µM) in assay [12]; 2 µg/mL (≈ 2.25 µM) in assay [13]. The Activity came out at 50% in [6] and 30% in assay [14]. In assay [7], the “fold change (FC)” value is on record as above 3.
Take `CO[C@H]1/C=C/O[C@@]2(C)Oc3c(C)c(O)c4c(c3C2=O)C2=NC3(CCN(CC(C)C)CC3)NC2=C(NC(=O)/C(C)=C\C=C\[C@H](C)[C@H](O)[C@@H](C)[C@@H](O)[C@@H](C)[C@H](O)[C@@H]1C)C4=O`: the MIC in [1] was above 2 µg/mL; in assay [2], 0.12 µg/mL (≈ 0.149 µM); in [3], 0.25 µg/mL (≈ 0.311 µM); in assay [4] it was 1 µg/mL (≈ 1.24 µM); in [5], 1 µg/mL (≈ 1.24 µM); in assay [8] it was above 2 µg/mL. The MIC in assay [9] was above 2 µg/mL; in assay [10] it was 2 µg/mL (≈ 2.48 µM); in assay [11], above 2 µg/mL; in assay [12], above 2 µg/mL; in assay [13], above 2 µg/mL.
As for `CCCCCCCCCCCCCCCC(=O)N1C2=C3NC(=O)/C(C)=C\C=C\[C@H](C)[C@H](O)[C@@H](C)[C@@H](O)[C@@H](C)[C@H](OC(C)=O)[C@H](C)[C@@H](OC)/C=C/O[C@@]4(C)Oc5c(C)c(O)c(c(c5C4=O)C2=NC12CCN(CC(C)C)CC2)C3=O`, the MIC in assay [1] was above 2 µg/mL; in assay [2], above 2 µg/mL; in assay [3], above 2 µg/mL; in assay [4], above 2 µg/mL; in assay [5], 2 µg/mL (≈ 1.84 µM); in assay [8] it was above 2 µg/mL. Besides, the minimal inhibitory concentration (MIC) in [9], in assay [10], in assay [11], in assay [12] and in assay [13] was above 2 µg/mL each time.
For the molecule `C=CCCCCCCCCC(=O)N1C2=C3NC(=O)/C(C)=C\C=C\[C@H](C)[C@H](O)[C@@H](C)[C@@H](O)[C@@H](C)[C@H](OC(C)=O)[C@H](C)[C@@H](OC)/C=C/O[C@@]4(C)Oc5c(C)c(O)c(c(c5C4=O)C2=NC12CCN(CC(C)C)CC2)C3=O`, the MIC in assay [1] is above 2 µg/mL; in assay [2], 0.25 µg/mL (≈ 0.247 µM); in assay [3], 1 µg/mL (≈ 0.987 µM); in assay [4], 0.25 µg/mL (≈ 0.247 µM); in [5], 0.5 µg/mL (≈ 0.493 µM); in assay [8] it was 2 µg/mL (≈ 1.97 µM). For the same molecule, the minimum inhibitory concentration (MIC) in assay [9] was above 2 µg/mL; in [10] it was 0.5 µg/mL (≈ 0.493 µM); in assay [11], above 2 µg/mL; in assay [12] it was 2 µg/mL (≈ 1.97 µM); in [13] it was above 2 µg/mL. The figures for the Activity in [6] and in assay [14] were 50% and 15%, respectively. The “fold change (FC)” value in assay [7] is above 3.
In the case of `CO[C@H]1/C=C/O[C@@]2(C)Oc3c(C)c(O)c4c(c3[C@H]2O)C2=NC3(CCN(CC(C)C)CC3)NC2=C(NC(=O)/C(C)=C\C=C\[C@H](C)[C@H](O)[C@@H](C)[C@@H](O)[C@@H](C)[C@H](O)[C@@H]1C)C4=O`, the minimum inhibitory concentration (MIC) in assay [1] is 2 µg/mL (≈ 2.48 µM); in assay [2] it was 0.5 µg/mL (≈ 0.62 µM); in assay [3], 2 µg/mL (≈ 2.48 µM); in assay [4] it was above 2 µg/mL; in assay [5] it was 2 µg/mL (≈ 2.48 µM); in assay [8], above 2 µg/mL. The MIC in assay [9], in assay [10], in [11], in assay [12] and in assay [13] was above 2 µg/mL each time.
Take `CO[C@H]1/C=C/O[C@@]2(C)Oc3c(C)c(O)c4c(c3[C@H]2O)C2=NC3(CCN(CC(C)C)CC3)N(C(C)=O)C2=C(NC(=O)/C(C)=C\C=C\[C@H](C)[C@H](O)[C@@H](C)[C@@H](O)[C@@H](C)[C@H](OC(C)=O)[C@@H]1C)C4=O`: the MIC is above 2 µg/mL in [1]; above 2 µg/mL in [2]; 2 µg/mL (≈ 2.24 µM) in assay [3]; 0.5 µg/mL (≈ 0.561 µM) in assay [4]; 0.5 µg/mL (≈ 0.561 µM) in assay [5]; above 2 µg/mL in assay [8]. The MIC in [9] was above 2 µg/mL; in [10] it was 0.5 µg/mL (≈ 0.561 µM); in assay [11], above 2 µg/mL; in assay [12], above 2 µg/mL; in [13], above 2 µg/mL.
`CO[C@H]1/C=C/O[C@@]2(C)Oc3c(C)c(O)c4c(c3C2=O)C2=NC3(CCN(CC(C)C)CC3)NC2=C(NC(=O)/C(C)=C\C=C\[C@H](C)[C@H](O)[C@@H](C)[C@@H](O)[C@@H](C)[C@H](OC(C)=O)[C@@H]1C)C4=O` [RIFABUTIN]: the minimal inhibitory concentration (MIC) in assay [1] was 2 µg/mL (≈ 2.36 µM); in assay [2] it was below 0.06 µg/mL; in [3], 0.12 µg/mL (≈ 0.142 µM); in [4], 0.06 µg/mL (≈ 0.0708 µM); in assay [5], 0.12 µg/mL (≈ 0.142 µM); in assay [8] it was 1 µg/mL (≈ 1.18 µM). Also, the MIC in assay [9] was above 2 µg/mL; in assay [10], 0.06 µg/mL (≈ 0.0708 µM); in assay [11] it was 2 µg/mL (≈ 2.36 µM); in assay [12], 0.25 µg/mL (≈ 0.295 µM); in assay [13], 1 µg/mL (≈ 1.18 µM).
For the molecule `CO[C@H]1/C=C/O[C@@]2(C)Oc3c(C)c(O)c4c(O)c(c(/C=N/N5CCN(C)CC5)c(O)c4c3C2=O)NC(=O)/C(C)=C\C=C\[C@H](C)[C@H](O)[C@@H](C)[C@@H](O)[C@@H](C)[C@H](OC(C)=O)[C@@H]1C` [RIFAMPIN], the MIC in assay [1] was above 2 µg/mL; in assay [2] it was above 2 µg/mL; in [3], 0.06 µg/mL (≈ 0.0729 µM); in assay [4], above 2 µg/mL; in assay [5], 2 µg/mL (≈ 2.43 µM); in assay [8], above 2 µg/mL. Also, the MIC in [9], in assay [10], in assay [11], in assay [12] and in [13] was above 2 µg/mL each time.

The record behind these values is ChEMBL document CHEMBL1926527, “Pharmacophore insights into rpoB gene mutations in Mycobacterium tuberculosis rifampicin resistant isolates” (2012).
